One assay concerns the target Plasma Kallikrein (Homo sapiens (Human), UniProt P03952). Briefly: Determination of related protease inhibition: Plasma Kallikrein (fluorogenic substrate at Km). It counts as biochemical. The following applies: 25° C., read-out: IC50 (human PKal). Put shortly: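 Human enzyme incubated with test compound over a concentration range and a fluorogenic substrate at its Km concentration. Liberated fluorescence monitored over 5 min at 25 °C; linear rate per minute expressed as % of uninhibited activity, and IC50 taken as the concentration giving 50% inhibition.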

In the next assay the target is Human Factor XIIa (Homo sapiens (Human), UniProt P00748). Briefly: Determination of FXIIa inhibition (fluorogenic substrate H-DPro-Phe-Arg-AFC, IC50 assay). It counts as biochemical. The following applies: substrate H-DPro-Phe-Arg-AFC at Km, 25° C.; class scale A-G. In short, it runs like this: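 Human FXIIa incubated at 25° C with fluorogenic substrate H-DPro-Phe-Arg-AFC at its Km concentration and varying compound concentrations. Fluorescence release monitored over 5 min at 25° C; linear rate expressed as % of uninhibited activity to derive IC50.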

IC50 data for 30 compounds are collected here from US20240059691A1 (KALVISTA PHARMACEUTICALS LIMITED, priority 2020, published 2024).

Bounds are passed on as bounds.

Sequence of Plasma Kallikrein (P03952 391-638): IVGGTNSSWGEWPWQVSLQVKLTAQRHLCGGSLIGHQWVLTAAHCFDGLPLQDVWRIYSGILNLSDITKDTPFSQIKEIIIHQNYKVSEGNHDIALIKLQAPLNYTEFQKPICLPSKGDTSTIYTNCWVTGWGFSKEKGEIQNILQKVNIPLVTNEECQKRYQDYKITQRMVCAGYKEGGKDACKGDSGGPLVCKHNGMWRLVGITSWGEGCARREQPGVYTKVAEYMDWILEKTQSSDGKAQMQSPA
Sequence of Plasma Kallikrein (P03952 20-390 partner): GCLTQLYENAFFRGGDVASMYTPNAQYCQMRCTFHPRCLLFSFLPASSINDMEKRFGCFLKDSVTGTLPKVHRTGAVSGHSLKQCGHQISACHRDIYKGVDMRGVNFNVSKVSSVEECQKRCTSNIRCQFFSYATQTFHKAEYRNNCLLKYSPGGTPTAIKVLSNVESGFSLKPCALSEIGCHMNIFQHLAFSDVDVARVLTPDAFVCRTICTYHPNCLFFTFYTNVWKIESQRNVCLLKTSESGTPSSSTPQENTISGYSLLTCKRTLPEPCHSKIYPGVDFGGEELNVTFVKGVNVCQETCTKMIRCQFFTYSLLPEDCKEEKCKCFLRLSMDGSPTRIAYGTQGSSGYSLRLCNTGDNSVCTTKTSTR
Sequence of Human Factor XIIa (P00748 373-615): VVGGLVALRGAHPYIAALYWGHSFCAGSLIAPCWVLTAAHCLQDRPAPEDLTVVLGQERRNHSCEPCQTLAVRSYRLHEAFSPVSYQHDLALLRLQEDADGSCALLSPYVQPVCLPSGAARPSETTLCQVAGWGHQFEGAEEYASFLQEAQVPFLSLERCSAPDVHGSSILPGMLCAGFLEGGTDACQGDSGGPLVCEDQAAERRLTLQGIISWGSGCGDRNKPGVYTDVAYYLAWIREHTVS

For the compound `Nc1ncc(Cl)c2cc(NCc3ccc(NCc4nccn4C(F)F)nc3)ccc12` [Example 1185], the IC50 (in general, the concentration needed to halve the response being measured) is over 40 µM on Plasma Kallikrein and 10 to 40 µM against Human Factor XIIa.
The matching figures for `Cc1cnc2n1CCC(COc1cc(CNc3cccc4c(N)nccc34)ccn1)C2` (single isomer, unassigned) [Example 4444, (S*)-N5-((2-((3-methyl-5,6,7,8-tetrahydroimidazo[1,2-a]pyridin-7-yl)methoxy)pyridin-4-yl)methyl)isoquinoline-1,5-diamine]: 3 to 10 µM and 0.1 to 0.3 µM.
As to `CC(C)(O)c1cnc2n1CCN(c1ccc(CNc3cccc4c(N)nccc34)cn1)C2` [Example 1167, 2-(7-(5-(((1-aminoisoquinolin-5-yl)amino)methyl)pyridin-2-yl)-5,6,7,8-tetrahydroimidazo[1,2-a]pyrazin-3-yl)propan-2-ol], the IC50 on Plasma Kallikrein is over 40 µM; at Human Factor XIIa, 3 to 10 µM.
The like results for `CN1CCC(OCc2ccc(CNc3ccc4cc(N)ncc4c3)cc2)CC1` [Example 2188, 7-N-[(4-{[(1-methylpiperidin-4-yl)oxy]methyl}phenyl)methyl]isoquinoline-3,7-diamine] were, in that order, 10 to 40 µM and 10 to 40 µM.
In the case of `Nc1nccc2c(NCc3ccc(N4CCn5cnnc5C4)nc3)cccc12` [Example 1276, N5-((6-(5,6-dihydro-[1,2,4]triazolo[4,3-a]pyrazin-7(8H)-yl)pyridin-3-yl)methyl)isoquinoline-1,5-diamine], the figures for the IC50 on Plasma Kallikrein and at Human Factor XIIa were over 40 µM and 1 to 3 µM, respectively.
For the compound `Nc1ncc(Cl)c2cc(NCc3ccc(N4CCc5nccn5CC4)nc3)ccc12` [Example 1272, 4-chloro-N6-((6-(5,6,8,9-tetrahydro-7H-imidazo[1,2-d][1,4]diazepin-7-yl)pyridin-3-yl)methyl)isoquinoline-1,6-diamine], the IC50 was in the range of 10 to 40 µM on Plasma Kallikrein and 1 to 3 µM against Human Factor XIIa.
The matching figures for `Nc1nccc2c(NCc3ccnc(NCCC(=O)N4CCCC4)c3)cccc12` [Example 4302, 3-[(4-{[(1-aminoisoquinolin-5-yl)amino]methyl}pyridin-2-yl)amino]-1-(pyrrolidin-1-yl)propan-1-one]: 10 to 40 µM and 1 to 3 µM.
With `Nc1ncc(Cl)c2cc(NCc3ccnc(NCC4CCn5ccnc5C4)c3)ccc12` (stereo not drawn) [Example 4303, 4-chloro-6-N-{[2-({5H,6H,7H,8H-imidazo[1,2-a]pyridin-7-ylmethyl}amino)pyridin-4-yl]methyl}isoquinoline-1,6-diamine], the results for the IC50 at Plasma Kallikrein and at Human Factor XIIa were over 40 µM and 0.1 to 0.3 µM, respectively.
For the compound `CN1CCC(CNc2ccc(CNc3ccc4cncc(Cl)c4c3)cn2)CC1` [Example 1188, 4-chloro-N-((6-(((1-methylpiperidin-4-yl)methyl)amino)pyridin-3-yl)methyl)isoquinolin-6-amine], the IC50 at Plasma Kallikrein is over 100 µM; against Human Factor XIIa, 40 to 100 µM.
For `Cc1cn2c(n1)CC(COc1cc(CNc3cccc4c(N)nccc34)ccn1)CC2` (single isomer, unassigned) [Example 4447, (R*)-N5-((2-((2-methyl-5,6,7,8-tetrahydroimidazo[1,2-a]pyridin-7-yl)methoxy)pyridin-4-yl)methyl)isoquinoline-1,5-diamine], the 50% inhibitory concentration (IC50) on Plasma Kallikrein was in the range of 3 to 10 µM; on Human Factor XIIa, 0.3 to 1 µM.
The like results for `Nc1ncc(Cl)c2cc(NCc3ccnc(NCCC(=O)N4CCCC4)c3)ccc12` [Example 4428, 3-[(4-{[(1-amino-4-chloroisoquinolin-6-yl)amino]methyl}pyridin-2-yl)amino]-1-(pyrrolidin-1-yl)propan-1-one] were, in that order, over 4 µM and 1 to 3 µM.
Take `Cn1c(COc2cc(CNc3cccc4c(N)nccc34)ccn2)nnc1C1CC1` [Example 4468, N5-((2-((5-cyclopropyl-4-methyl-4H-1,2,4-triazol-3-yl)methoxy)pyridin-4-yl)methyl)isoquinoline-1,5-diamine]: the IC50 at Plasma Kallikrein is over 40 µM; against Human Factor XIIa, 1 to 3 µM.
Turning to `FC(F)(F)c1nnc2n1CCN(c1ccc(CNc3ccnc4[nH]c(Cl)cc34)cn1)C2` [Example 1280, 2-chloro-N-((6-(3-(trifluoromethyl)-5,6-dihydro-[1,2,4]triazolo[4,3-a]pyrazin-7(8H)-yl)pyridin-3-yl)methyl)-1H-pyrrolo[2,3-b]pyridin-4-amine], the IC50 on Plasma Kallikrein was over 40 µM; on Human Factor XIIa, 0.3 to 1 µM.
In the case of `CN1CCC(CNc2ccc(CNc3ccc4cncc(N5CCCCC5)c4c3)cn2)CC1` [Example 1198, N-((6-(((1-methylpiperidin-4-yl)methyl)amino)pyridin-3-yl)methyl)-4-(piperidin-1-yl)isoquinolin-6-amine], the IC50 is over 40 µM on Plasma Kallikrein and 40 to 100 µM at Human Factor XIIa.
The like results for `CN1CCC(CNc2ccc(CNc3ccc4c[nH]c(=O)cc4c3)cn2)CC1` [Example 1201, 6-(((6-(((1-methylpiperidin-4-yl)methyl)amino)pyridin-3-yl)methyl)amino)isoquinolin-3(2H)-one] were, in that order, over 40 µM and 40 to 100 µM.
Take `Nc1nccc2cc(NCc3ccnc(OCC4CCn5ccnc5C4)c3)ncc12` (stereo not drawn) [Example 4429, N6-[[2-(5,6,7,8-tetrahydroimidazo[1,2-a]pyridin-7-ylmethoxy)-4-pyridyl]methyl]-2,7-naphthyridine-1,6-diamine]: the IC50 on Plasma Kallikrein lay within 3 to 10 µM; on Human Factor XIIa, 1 to 3 µM.
In the case of `CN1CCC(Oc2ccc(CNc3ccc4ccnc(N)c4c3)cc2)CC1` [Example 1003, N7-(4-((1-methylpiperidin-4-yl)oxy)benzyl)isoquinoline-1,7-diamine], the IC50 on Plasma Kallikrein lay within 10 to 40 µM; on Human Factor XIIa, 3 to 10 µM.
On to `Cc1cc2c(NCc3ccc(N4CCn5c(nnc5C(F)F)C4)nc3)ccnc2[nH]1` [Example 1278, N-((6-(3-(Difluoromethyl)-5,6-dihydro-[1,2,4]triazolo[4,3-a]pyrazin-7(8H)-yl)pyridin-3-yl)methyl)-2-methyl-1H-pyrrolo[2,3-b]pyridin-4-amine], for which the IC50 at Plasma Kallikrein was over 40 µM; against Human Factor XIIa it was 1 to 3 µM.
Regarding `Cc1cnc2n1CCC(COc1cc(CNc3cccc4c(N)nccc34)ccn1)C2` (stereo not drawn) [Example 4320, N5-[[2-[(3-methyl-5,6,7,8-tetrahydroimidazo[1,2-a]pyridin-7-yl)methoxy]-4-pyridyl]methyl]isoquinoline-1,5-diamine], the half-inhibitory concentration (IC50) on Plasma Kallikrein was in the range of 3 to 10 µM; against Human Factor XIIa, 0.1 to 0.3 µM.
On to `CN1CCC(CNc2ccc(CNc3cc(C#N)cc4[nH]ccc34)cn2)CC1` [Example 1256], for which the IC50 was over 40 µM on Plasma Kallikrein and 10 to 40 µM on Human Factor XIIa.
The matching figures for `Cc1cn2c(n1)CC(COc1cc(CNc3ccc4c(N)ncc(Cl)c4c3)ccn1)CC2` (single isomer, unassigned) [Example 4442, (R*)-4-chloro-N6-((2-((2-methyl-5,6,7,8-tetrahydroimidazo[1,2-a]pyridin-7-yl)methoxy)pyridin-4-yl)methyl)isoquinoline-1,6-diamine]: 10 to 40 µM and 0.3 to 1 µM.
As to `CC1c2nccn2CCN1c1ccc(CNc2cccc3c(N)nccc23)cn1` (stereo not drawn) [Example 1150, N5-((6-(8-methyl-5,6-dihydroimidazo[1,2-a]pyrazin-7(8H)-yl)pyridin-3-yl)methyl)isoquinoline-1,5-diamine], the IC50 at Plasma Kallikrein is over 40 µM; against Human Factor XIIa it was 0.3 to 1 µM.
For `CN1CCC(OCc2ccc(COc3ccc4c(N)nccc4c3)cc2)CC1` [Example 1011, 6-((4-(((1-Methylpiperidin-4-yl)oxy)methyl)benzyl)oxy)isoquinolin-1-amine], the IC50 lay within 10 to 40 µM at Plasma Kallikrein and 3 to 10 µM on Human Factor XIIa.
The like results for `CN1CCN(c2cc(CNc3ccc4c(N)ncc(Cl)c4c3)ccn2)CC1` [Example 4427, 4-chloro-6-N-{[2-(4-methylpiperazin-1-yl)pyridin-4-yl]methyl}isoquinoline-1,6-diamine] were, in that order, over 40 µM and 10 to 40 µM.
Take `CC(C)(O)C1CN(c2ccc(CNc3cccc4c(N)nccc34)cn2)Cc2nccn21` (stereo not drawn) [Example 1135, 2-(7-(5-(((1-aminoisoquinolin-5-yl)amino)methyl)pyridin-2-yl)-5,6,7,8-tetrahydroimidazo[1,2-a]pyrazin-5-yl)propan-2-ol]: the IC50 at Plasma Kallikrein was over 40 µM; on Human Factor XIIa it was 3 to 10 µM.
The like results for `COc1cc(NCc2ccc(NCC3CCN(C)CC3)nc2)cc2ccncc12` [Example 1103, 8-methoxy-N-((6-(((1-methylpiperidin-4-yl)methyl)amino)pyridin-3-yl)methyl)isoquinolin-6-amine] were, in that order, 10 to 40 µM and 10 to 40 µM.
The like results for `CN1CCC(COc2cc(CNc3ccnc4[nH]ccc34)ccn2)CC1` [Example 4459, N-((2-((1-methylpiperidin-4-yl)methoxy)pyridin-4-yl)methyl)-1H-pyrrolo[2,3-b]pyridin-4-amine] were, in that order, over 100 µM and 10 to 40 µM.
The like results for `Nc1ncc(Cl)c2cc(NCc3ccnc(OCc4ccn5ccnc5c4)c3)ccc12` [Example 4433, 4-chloro-6-N-[(2-{imidazo[1,2-a]pyridin-7-ylmethoxy}pyridin-4-yl)methyl]isoquinoline-1,6-diamine] were, in that order, over 40 µM and 1 to 3 µM.
In the case of `Cc1cc2c(NCc3ccnc(OCC4CCN(C)CC4)c3)ccnc2[nH]1` [Example 4465, 2-methyl-N-((2-((1-methylpiperidin-4-yl)methoxy)pyridin-4-yl)methyl)-1H-pyrrolo[2,3-b]pyridin-4-amine], the IC50 on Plasma Kallikrein is over 100 µM; against Human Factor XIIa, 1 to 3 µM.
The matching figures for `Cc1n[nH]c2c1CCC2Nc1ccc(CNc2ccc3c(N)ncc(Cl)c3c2)cn1` (stereo not drawn) [Example 1118, 4-chloro-6-N-{[6-({3-methyl-1H,4H,5H,6H-cyclopenta[c]pyrazol-6-yl}amino)pyridin-3-yl]methyl}isoquinoline-1,6-diamine]: over 40 µM and 10 to 40 µM.
